Laboratory results: ChEMBL document CHEMBL1132817 (Bioorg Med Chem Lett, 2000)

Columns and labels:
[1] = target: T1, M-phase inducer phosphatase 1 (Homo sapiens, UniProt P30304); test: The compound was tested for its inhibitory activity against Cell division cycle 25A
T1 sequence (P30304 whole entry): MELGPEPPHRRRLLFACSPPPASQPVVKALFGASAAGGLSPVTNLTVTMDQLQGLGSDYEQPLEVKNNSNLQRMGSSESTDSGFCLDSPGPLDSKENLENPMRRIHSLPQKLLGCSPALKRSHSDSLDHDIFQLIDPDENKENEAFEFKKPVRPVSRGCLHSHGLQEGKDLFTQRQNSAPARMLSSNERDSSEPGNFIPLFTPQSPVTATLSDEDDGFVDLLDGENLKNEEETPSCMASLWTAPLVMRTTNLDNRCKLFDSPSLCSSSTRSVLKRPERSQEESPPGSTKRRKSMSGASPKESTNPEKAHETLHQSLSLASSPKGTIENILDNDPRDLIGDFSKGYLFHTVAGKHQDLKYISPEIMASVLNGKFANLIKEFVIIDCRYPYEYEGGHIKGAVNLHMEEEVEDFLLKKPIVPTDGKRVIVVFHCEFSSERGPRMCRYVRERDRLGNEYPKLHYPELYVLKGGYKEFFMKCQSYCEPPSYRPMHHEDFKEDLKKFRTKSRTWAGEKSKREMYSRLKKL

[2] = target: T2, M-phase inducer phosphatase 2 (Homo sapiens, UniProt P30305); test: The compound was tested for its inhibitory activity against Cell division cycle 25B
T2 sequence (P30305 whole entry): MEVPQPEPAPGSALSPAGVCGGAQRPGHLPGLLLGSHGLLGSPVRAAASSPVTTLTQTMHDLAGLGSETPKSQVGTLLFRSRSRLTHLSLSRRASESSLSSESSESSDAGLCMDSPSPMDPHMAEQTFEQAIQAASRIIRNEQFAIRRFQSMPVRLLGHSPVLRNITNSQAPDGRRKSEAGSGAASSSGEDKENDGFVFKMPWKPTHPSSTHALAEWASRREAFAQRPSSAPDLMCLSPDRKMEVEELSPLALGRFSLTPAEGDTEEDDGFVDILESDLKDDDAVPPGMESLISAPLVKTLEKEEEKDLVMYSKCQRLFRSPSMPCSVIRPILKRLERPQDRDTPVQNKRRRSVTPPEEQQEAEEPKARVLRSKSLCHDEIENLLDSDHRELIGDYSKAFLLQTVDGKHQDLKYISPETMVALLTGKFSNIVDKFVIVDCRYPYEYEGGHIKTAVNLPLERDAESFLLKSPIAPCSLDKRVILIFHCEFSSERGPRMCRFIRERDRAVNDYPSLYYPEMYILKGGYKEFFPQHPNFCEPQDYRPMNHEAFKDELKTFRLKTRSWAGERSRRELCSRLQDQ

SBC-5 = test: The compound was tested for its inhibitory activity against SBC-5 human lung cancer cell line; assay type: functional, cell-based
HL-60 = test: The compound was tested for its inhibitory activity against HL-60 human leukemia cell line; assay type: functional, cell-based

Structure (SMILES)	IC50 [1]	IC50 [2]	IC50 (SBC-5)	IC50 (HL-60)
C=C(C)CCC[C@]1(C)CCC[C@@H]2C1=CC[C@@H](C)[C@@H]2C[C@H](O)C1=CC(=O)OC1O (some centres undefined)	15 µM	27 µM	4.4 µM	–
C=C(C)CCC[C@]1(C)CCC[C@@H]2C1=CC[C@@H](C)[C@]2(C)C[C@H](O)C1=CC(=O)OC1O (some centres undefined)	–	18 µM	1.3 µM	1 µM
C=C(C)CCC[C@@]1(C)CCC[C@H]2C1=CC[C@H](C)[C@]2(C)C[C@H](O)C1=CC(=O)O[C@@H]1O (stereo in doubt)	–	19 µM	16 µM	–
CC1(CC(O)C2=CC(=O)OC2O)CCCCC1 (centres undefined)	> 300 µM	> 300 µM	12 µM	–
C=C(C)CCC[C@]1(C)CCC[C@@H]2C1=CC[C@@H](C)[C@@]2(C)C[C@@H](O)C1=CC(=O)O[C@H]1O [DYSIDIOLIDE]	–	87 µM	5.4 µM	7.1 µM
